Reference: ChEMBL document CHEMBL5370592, “Synthesis and Structure-Activity Relationships of a New Class of Oxadiazoles Targeting DprE1 as Antitubercular Agents” (ACS Med Chem Lett, 2023)
≈ marks a conversion by molar mass, not a printed value.

How the values were obtained:
Assay type in all cases: functional
[1] = test system: Mycobacterium tuberculosis; test: Antitubercular activity against isoniazid/prothionamide-resistant Mycobacterium tuberculosis NIHB140 assessed as inhibition of bacterial growth incubated for 2 weeks; details: NIHB140, 336 h
[2] = test system: Mycobacterium tuberculosis; test: Antitubercular activity against isonizaid/rifampicin/streptomycin/ethionamide-resistant Mycobacterium tuberculosis NIH_G79 assessed as inhibition of bacterial growth incubated for 2 weeks; details: NIH_G79, 336 h
[3] = test system: Mycobacterium tuberculosis; test: Antitubercular activity against ethambutol/D-cycloserine-resistant Mycobacterium tuberculosis NIH_G11R assessed as inhibition of bacterial growth incubated for 2 weeks; details: 336 h
[4] = test system: Mycobacterium tuberculosis; test: Antitubercular activity against isoniazid/rifampicin/ethambutol/streptomycin/D-cycloserine/rifabutin-resistant Mycobacterium tuberculosis NIH_G19R assessed as inhibition of bacterial growth incubated for 2 weeks; details: 336 h
[5] = test system: Mycobacterium tuberculosis; test: Antitubercular activity against isonizaid/rifampicin/ethambutol/rifabutin-resistant Mycobacterium tuberculosis NIH_G269DR assessed as inhibition of bacterial growth incubated for 2 weeks; details: 336 h
[6] = test system: Mycobacterium tuberculosis; test: Antitubercular activity against isoniazid/rifampicin/ethambutol/rifabutin-resistant Mycobacterium tuberculosis K22b00MR assessed as inhibition of bacterial growth incubated for 2 weeks; details: 336 h
[7] = test system: Mycobacterium tuberculosis; test: Antitubercular activity against isonizaid/rifampicin/ethionamide/prothionamide-resistant Mycobacterium tuberculosis NIHA48 assessed as inhibition of bacterial growth incubated for 2 weeks; details: NIHA48, 336 h
[8] = test system: Mycobacterium tuberculosis; test: Antitubercular activity against isoniazid/rifampicin/moxifloxacin-resistant Mycobacterium tuberculosis NIH_G76MR assessed as inhibition of bacterial growth incubated for 2 weeks; details: 336 h
[9] = test system: Mycobacterium tuberculosis; test: Antitubercular activity against isoniazid/rifampicin/ethambutol/pyrazinamide/prothionamide/ofloxacin/levofloxacin/rifabutin-resistant Mycobacterium tuberculosis NIHB270 assessed as inhibition of bacterial growth incubated for 2 weeks; details: NIHB270, 336 h
[10] = test system: Mycobacterium tuberculosis; test: Antitubercular activity against isoniazid/rifampicin/kanamycin/pyrazinamide/capreomycin/amikacin/prothionamide/D-cycloserine-resistant Mycobacterium tuberculosis K32b00MR assessed as inhibition of bacterial growth incubated for 2 weeks; details: 336 h
[11] = test system: Mycobacterium tuberculosis; test: Antitubercular activity against extensively drug-resistant Mycobacterium tuberculosis NIH1B178 assessed as inhibition of bacterial growth incubated for 2 weeks; details: NIH1B178, 336 h
[12] = test system: Mycobacterium tuberculosis; test: Antitubercular activity against isoniazid/ofloxacin/prothionamide-resistant Mycobacterium tuberculosis NIH1B127 assessed as inhibition of bacterial growth incubated for 2 weeks; details: NIH1B127, 336 h
[13] = test system: Mycobacterium tuberculosis; test: Antitubercular activity against extensively drug-resistant Mycobacterium tuberculosis NIH1B250 assessed as inhibition of bacterial growth incubated for 2 weeks; details: NIH1B250, 336 h
[14] = test system: Mycobacterium tuberculosis; test: Antitubercular activity against isoniazid/rifampicin/ethambutol/pyrazinamid/rifabutin-resistant Mycobacterium tuberculosis K26b00MR assessed as inhibition of bacterial growth incubated for 2 weeks; details: 336 h
[15] = test system: Mycobacterium tuberculosis; test: Antitubercular activity against isoniazid/rifampicin/ethambutol/para-aminosalicylic acid/kanamycin/ofloxacin/prothionamide-resistant Mycobacterium tuberculosis Kb019 assessed as inhibition of bacterial growth incubated for 2 weeks; details: Kb019, 336 h
[16] = test system: Mycobacterium tuberculosis; test: Antitubercular activity against extensively drug-resistant Mycobacterium tuberculosis clinical strain 00202293 assessed as inhibition of bacterial growth incubated for 2 weeks; details: Mycobacterium tuberculosis, 00202293, 336 h
[17] = test system: Mycobacterium tuberculosis; test: Antitubercular activity against ethionamide-resistant Mycobacterium tuberculosis NIH_G145 assessed as inhibition of bacterial growth incubated for 2 weeks; details: NIH_G145, 336 h
[18] = test system: Mycobacterium tuberculosis; test: Antitubercular activity against isoniazid/rifampicin/para-aminosalicylic acid/ofloxacin/prothionamide-resistant Mycobacterium tuberculosis NIHB67 assessed as inhibition of bacterial growth incubated for 2 weeks; details: NIHB67, 336 h
[19] = test system: Mycobacterium tuberculosis; test: Antitubercular activity against isoniazid/rifampicin/para-aminosalicylic acid/pyrazinamide/prothionamide/rifabutin-resistant Mycobacterium tuberculosis NIHB68 assessed as inhibition of bacterial growth incubated for 2 weeks; details: NIHB68, 336 h
[20] = test system: Mycobacterium tuberculosis; test: Antitubercular activity against isonizaid/rifampicin/ethambutol/rifabutin-resistant Mycobacterium tuberculosis NIH_G22R assessed as inhibition of bacterial growth incubated for 2 weeks; details: 336 h
[21] = test system: Mycobacterium tuberculosis; test: Antitubercular activity against isoniazid/rifampicin/pyrazinamide/prothionamide/rifabutin/ofloxacin/moxifloxacin/levofloxacin-resistant Mycobacterium tuberculosis NIHB188 assessed as inhibition of bacterial growth incubated for 2 weeks; details: NIHB188, 336 h
[22] = test system: Mycobacterium tuberculosis; test: Antitubercular activity against isoniazid/rifampicin/ethambutol/pyrazinamide/streptomycin/kanamycin-resistant Mycobacterium tuberculosis K20b00MR assessed as inhibition of bacterial growth incubated for 2 weeks; details: 336 h
[23] = test system: Mycobacterium tuberculosis; test: Antitubercular activity against isoniazid/ethionamide/D-cycloserine-resistant Mycobacterium tuberculosis NIH_G17R assessed as inhibition of bacterial growth incubated for 2 weeks; details: 336 h
[24] = test system: Mycobacterium tuberculosis; test: Antitubercular activity against rifampicin/isoniazid/streptomycin/prothionamide-resistant Mycobacterium tuberculosis NIHB43 assessed as inhibition of bacterial growth incubated for 2 weeks; details: NIHB43, 336 h
[25] = test system: Mycobacterium tuberculosis; test: Antitubercular activity against isonizaid/rifampicin/rifabutin-resistant Mycobacterium tuberculosis NIHA37 assessed as inhibition of bacterial growth incubated for 2 weeks; details: NIHA37, 336 h
[26] = test system: Mycobacterium tuberculosis; test: Antitubercular activity against isoniazid/rifampicin/ethambutol/pyrazinamid/rifabutin/prothionamide-resistant Mycobacterium tuberculosis K25b00MR assessed as inhibition of bacterial growth incubated for 2 weeks; details: 336 h
[27] = test system: Mycobacterium tuberculosis; test: Antitubercular activity against isoniazid/prothionamide-resistant Mycobacterium tuberculosis NIHA38 assessed as inhibition of bacterial growth incubated for 2 weeks; details: NIHA38, 336 h
[28] = test system: Mycobacterium tuberculosis; test: Antitubercular activity against isoniazid/ethambutol/prothionamide/D-cycloserine/ofloxacin/levofloxacin/pyrazinamide-resistant Mycobacterium tuberculosis NIH1B314 assessed as inhibition of bacterial growth incubated for 2 weeks; details: NIH1B314, 336 h
[29] = test system: Mycobacterium tuberculosis; test: Antitubercular activity against isoniazid/rifampicin/ethambutol/pyrazinamide/streptomycin/kanamycin/para-aminosalicylic acid/prothionamide-resistant Mycobacterium tuberculosis K33b00MR assessed as inhibition of bacterial growth incubated for 2 weeks; details: 336 h
[30] = test system: Mycobacterium tuberculosis; test: Antitubercular activity against isoniazid/rifampicin/streptomycin-resistant Mycobacterium tuberculosis clinical strain 01291696 assessed as inhibition of bacterial growth incubated for 2 weeks; details: Mycobacterium tuberculosis, 01291696, 336 h
[31] = test system: Mycobacterium tuberculosis; test: Antitubercular activity against isoniazid/rifampicin/ethambutol/rifabutin-resistant Mycobacterium tuberculosis K18b01MR assessed as inhibition of bacterial growth incubated for 2 weeks; details: 336 h
[32] = test system: Mycobacterium tuberculosis; test: Antitubercular activity against isoniazid/rifampicin/ethambutol/pyrazinamide/rifabutin/prothionamide-resistant Mycobacterium tuberculosis NIHB302 assessed as inhibition of bacterial growth incubated for 2 weeks; details: NIHB302, 336 h
[33] = test system: Mycobacterium tuberculosis; test: Antitubercular activity against extensively drug-resistant Mycobacterium tuberculosis 028K111 assessed as inhibition of bacterial growth incubated for 2 weeks; details: 028K111, 336 h
[34] = test system: Mycobacterium tuberculosis; test: Antitubercular activity against isonizaid/rifampicin/ethambutol/rifabutin/D-cycloserine-resistant Mycobacterium tuberculosis NIH_G21R assessed as inhibition of bacterial growth incubated for 2 weeks; details: 336 h
[35] = test system: Mycobacterium tuberculosis; test: Antitubercular activity against isoniazid/rifampicin/moxifloxacin-resistant Mycobacterium tuberculosis NIH_G367DR assessed as inhibition of bacterial growth incubated for 2 weeks; details: 336 h
[36] = test system: Mycobacterium tuberculosis; test: Antitubercular activity against isoniazid/rifampicin/streptomycin/para-aminosalicylic acid/ofloxacin-resistant Mycobacterium tuberculosis K29b00MR assessed as inhibition of bacterial growth incubated for 2 weeks; details: 336 h
[37] = test system: Mycobacterium tuberculosis; test: Antitubercular activity against extensively drug-resistant Mycobacterium tuberculosis clinical strain X37b00XR assessed as inhibition of bacterial growth incubated for 2 weeks; details: 336 h
[38] = test system: Mycobacterium tuberculosis; test: Antitubercular activity against extensively drug-resistant Mycobacterium tuberculosis NIHB13 assessed as inhibition of bacterial growth incubated for 2 weeks; details: NIHB13, 336 h
[39] = test system: Mycobacterium tuberculosis; test: Antitubercular activity against isoniazid/ethionamide-resistant Mycobacterium tuberculosis NIH1B21 assessed as inhibition of bacterial growth incubated for 2 weeks; details: NIH1B21, 336 h
[40] = test system: Mycobacterium tuberculosis; test: Antitubercular activity against isoniazid/rifampicin/ethambutol/streptomycin-resistant Mycobacterium tuberculosis K21b00MR assessed as inhibition of bacterial growth incubated for 2 weeks; details: 336 h
[41] = test system: Mycobacterium tuberculosis; test: Antitubercular activity against streptomycin/D-cycloserine-resistant Mycobacterium tuberculosis NIH_G169 assessed as inhibition of bacterial growth incubated for 2 weeks; details: NIH_G169, 336 h
[42] = test system: Mycobacterium tuberculosis; test: Antitubercular activity against isoniazid/rifampicin/ethambutol/rifabutin-resistant Mycobacterium tuberculosis NIH_G10R assessed as inhibition of bacterial growth incubated for 2 weeks; details: 336 h
[43] = test system: Mycobacterium tuberculosis; test: Antitubercular activity against extensively drug-resistant Mycobacterium tuberculosis 026K111 assessed as inhibition of bacterial growth incubated for 2 weeks; details: 026K111, 336 h

O=C(C1CCN(c2nnc(-c3ccccc3)o2)CC1)N1CCC(Cc2ccccc2)CC1
MIC [1]: 0.6 µM (≈ 0.258 µg/mL)
MIC [2]: 1.56 µM (≈ 0.672 µg/mL)
MIC [3]: 0.6 µM (≈ 0.258 µg/mL)
MIC [4]: 1.56 µM (≈ 0.672 µg/mL)
MIC [5]: 1.2 µM (≈ 0.517 µg/mL)
MIC [6]: 1.56 µM (≈ 0.672 µg/mL)
MIC [7]: 1.56 µM (≈ 0.672 µg/mL)
MIC [8]: 1.2 µM (≈ 0.517 µg/mL)
MIC [9]: 1.56 µM (≈ 0.672 µg/mL)
MIC [10]: 1.56 µM (≈ 0.672 µg/mL)
MIC [11]: 0.78 µM (≈ 0.336 µg/mL)
MIC [12]: 0.39 µM (≈ 0.168 µg/mL)
MIC [13]: 2.3 µM (≈ 0.99 µg/mL)
MIC [14]: 1.2 µM (≈ 0.517 µg/mL)
MIC [15]: 4.7 µM (≈ 2.02 µg/mL)
MIC [16]: 1.56 µM (≈ 0.672 µg/mL)
MIC [17]: 1.2 µM (≈ 0.517 µg/mL)
MIC [18]: 0.78 µM (≈ 0.336 µg/mL)
MIC [19]: 0.39 µM (≈ 0.168 µg/mL)
MIC [20]: 1.2 µM (≈ 0.517 µg/mL)
MIC [21]: 0.6 µM (≈ 0.258 µg/mL)
MIC [22]: 4.7 µM (≈ 2.02 µg/mL)
MIC [23]: 0.6 µM (≈ 0.258 µg/mL)
MIC [24]: 0.78 µM (≈ 0.336 µg/mL)
MIC [25]: 0.39 µM (≈ 0.168 µg/mL)
MIC [26]: 1.2 µM (≈ 0.517 µg/mL)
MIC [27]: 0.39 µM (≈ 0.168 µg/mL)
MIC [28]: 3.13 µM (≈ 1.35 µg/mL)
MIC [29]: 2.3 µM (≈ 0.99 µg/mL)
MIC [30]: 0.78 µM (≈ 0.336 µg/mL)
MIC [31]: 1.56 µM (≈ 0.672 µg/mL)
MIC [32]: 0.78 µM (≈ 0.336 µg/mL)
MIC [33]: 1.56 µM (≈ 0.672 µg/mL)
MIC [34]: 2.3 µM (≈ 0.99 µg/mL)
MIC [35]: 3.13 µM (≈ 1.35 µg/mL)
MIC [36]: 1.2 µM (≈ 0.517 µg/mL)
MIC [37]: 3.13 µM (≈ 1.35 µg/mL)
MIC [38]: 0.78 µM (≈ 0.336 µg/mL)
MIC [39]: 1.56 µM (≈ 0.672 µg/mL)
MIC [40]: 1.2 µM (≈ 0.517 µg/mL)
MIC [41]: 0.39 µM (≈ 0.168 µg/mL)
MIC [42]: 0.6 µM (≈ 0.258 µg/mL)
MIC [43]: 1.56 µM (≈ 0.672 µg/mL)
